Data published in ChEMBL document CHEMBL5214951, “Isatoic anhydrides as novel inhibitors of monoamine oxidase” (Bioorg Med Chem, 2022).

Tests used:
[1] = target: T1, Amine oxidase [flavin-containing] A (Homo sapiens, UniProt P21397)
T1 sequence (P21397 whole entry): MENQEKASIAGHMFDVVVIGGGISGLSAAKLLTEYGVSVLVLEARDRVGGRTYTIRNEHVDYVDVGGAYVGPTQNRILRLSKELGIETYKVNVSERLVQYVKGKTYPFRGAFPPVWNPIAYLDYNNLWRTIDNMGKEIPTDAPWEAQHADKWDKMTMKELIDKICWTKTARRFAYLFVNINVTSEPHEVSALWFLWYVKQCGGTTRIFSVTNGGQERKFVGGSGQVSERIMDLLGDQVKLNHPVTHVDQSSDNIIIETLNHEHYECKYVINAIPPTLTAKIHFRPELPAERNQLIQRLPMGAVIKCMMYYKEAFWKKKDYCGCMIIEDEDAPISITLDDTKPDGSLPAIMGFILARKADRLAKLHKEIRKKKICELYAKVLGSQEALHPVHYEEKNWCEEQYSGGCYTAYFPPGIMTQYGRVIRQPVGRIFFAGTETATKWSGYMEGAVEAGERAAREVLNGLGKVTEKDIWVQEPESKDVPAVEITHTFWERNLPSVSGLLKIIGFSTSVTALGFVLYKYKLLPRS

[2] = target: T2, Amine oxidase [flavin-containing] B (Homo sapiens, UniProt P27338)
T2 sequence (P27338 whole entry): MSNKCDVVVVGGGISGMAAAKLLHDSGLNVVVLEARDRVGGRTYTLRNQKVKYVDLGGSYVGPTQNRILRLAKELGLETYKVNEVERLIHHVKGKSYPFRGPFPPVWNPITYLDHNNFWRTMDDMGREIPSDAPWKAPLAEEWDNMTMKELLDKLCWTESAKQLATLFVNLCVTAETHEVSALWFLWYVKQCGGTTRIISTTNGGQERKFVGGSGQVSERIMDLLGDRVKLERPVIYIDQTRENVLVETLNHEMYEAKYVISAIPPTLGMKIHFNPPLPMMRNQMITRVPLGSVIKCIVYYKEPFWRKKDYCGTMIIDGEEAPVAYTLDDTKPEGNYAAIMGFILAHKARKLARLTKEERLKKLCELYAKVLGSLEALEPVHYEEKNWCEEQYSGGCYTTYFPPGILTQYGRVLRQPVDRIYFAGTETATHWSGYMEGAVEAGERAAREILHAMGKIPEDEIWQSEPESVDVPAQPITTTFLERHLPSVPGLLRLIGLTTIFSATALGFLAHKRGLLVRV

[3] = target: D-amino-acid oxidase (Sus scrofa, UniProt P00371); experiment: Inhibition of porcine kidney DAAO using D-serine as substrate by Amplex red and horseradish peroxidase fluorescence assay
[4] = target: T2, Amine oxidase [flavin-containing] B; experiment: Competitive inhibition of human recombinant MAO-B assessed as inhibitory constant using varying levels of kynuramine as substrate by Lineweaver-burk plot analysis
[5] = target: T1, Amine oxidase [flavin-containing] A; experiment: Competitive inhibition of human recombinant MAO-A assessed as inhibitory constant using varying levels of kynuramine as substrate by Lineweaver-burk plot analysis
[6] = target: Cholinesterase (Equus caballus, UniProt P81908)
Description: Inhibition of equine serum BuChE using S-butyrylthiocholine as substrate at by DTNB reagent based spectrophotometric analysis

[7] = target: Acetylcholinesterase (Homo sapiens, UniProt P22303); experiment: Inhibition of human recombinant AChE using S-acetylthiocholine as substrate by DTNB reagent based spectrophotometric analysis
Chain of Acetylcholinesterase (P22303 whole entry): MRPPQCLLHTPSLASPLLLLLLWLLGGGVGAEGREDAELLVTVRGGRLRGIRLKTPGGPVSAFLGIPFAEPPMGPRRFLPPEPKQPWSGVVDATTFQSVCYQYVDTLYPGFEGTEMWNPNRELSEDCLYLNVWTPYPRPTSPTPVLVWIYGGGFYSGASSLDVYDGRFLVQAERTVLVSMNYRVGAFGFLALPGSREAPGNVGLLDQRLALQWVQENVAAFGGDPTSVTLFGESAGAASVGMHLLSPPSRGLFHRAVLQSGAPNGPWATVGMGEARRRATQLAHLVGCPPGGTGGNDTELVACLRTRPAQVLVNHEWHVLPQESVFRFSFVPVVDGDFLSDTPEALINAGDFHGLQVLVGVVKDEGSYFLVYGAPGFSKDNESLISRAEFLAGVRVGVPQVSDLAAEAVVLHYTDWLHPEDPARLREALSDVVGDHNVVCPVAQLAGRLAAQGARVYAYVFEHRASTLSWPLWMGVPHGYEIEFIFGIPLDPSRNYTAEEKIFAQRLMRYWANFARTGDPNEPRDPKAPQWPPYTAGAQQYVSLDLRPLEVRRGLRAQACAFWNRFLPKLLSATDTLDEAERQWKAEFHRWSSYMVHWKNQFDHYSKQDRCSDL

Chain of Cholinesterase (P81908 whole entry): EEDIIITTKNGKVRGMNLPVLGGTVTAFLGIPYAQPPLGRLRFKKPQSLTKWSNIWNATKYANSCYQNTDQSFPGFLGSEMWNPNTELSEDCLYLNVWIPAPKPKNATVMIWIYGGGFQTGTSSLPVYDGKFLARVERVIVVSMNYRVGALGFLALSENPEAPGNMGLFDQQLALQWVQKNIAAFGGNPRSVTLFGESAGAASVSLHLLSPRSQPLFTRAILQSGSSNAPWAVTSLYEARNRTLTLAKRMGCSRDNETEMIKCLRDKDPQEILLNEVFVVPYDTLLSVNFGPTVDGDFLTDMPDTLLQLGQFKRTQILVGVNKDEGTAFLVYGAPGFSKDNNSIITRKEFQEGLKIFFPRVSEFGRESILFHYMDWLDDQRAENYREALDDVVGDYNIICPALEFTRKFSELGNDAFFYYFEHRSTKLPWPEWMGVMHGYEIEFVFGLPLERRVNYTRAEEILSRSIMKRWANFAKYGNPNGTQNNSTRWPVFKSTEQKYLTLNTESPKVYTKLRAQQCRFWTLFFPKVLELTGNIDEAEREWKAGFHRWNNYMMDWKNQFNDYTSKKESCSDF
Chain of D-amino-acid oxidase (P00371 whole entry): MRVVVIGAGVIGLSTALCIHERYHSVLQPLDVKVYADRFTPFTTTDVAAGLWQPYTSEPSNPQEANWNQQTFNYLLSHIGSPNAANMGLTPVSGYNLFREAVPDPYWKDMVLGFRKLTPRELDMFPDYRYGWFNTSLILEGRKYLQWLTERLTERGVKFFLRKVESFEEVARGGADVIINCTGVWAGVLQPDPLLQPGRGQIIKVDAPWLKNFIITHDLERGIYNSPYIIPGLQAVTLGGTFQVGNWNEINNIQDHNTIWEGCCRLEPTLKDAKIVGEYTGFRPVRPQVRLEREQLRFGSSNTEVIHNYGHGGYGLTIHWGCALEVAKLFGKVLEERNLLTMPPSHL

| IC50 [3] [nM] | Ki [4] [nM] | Ki [5] [nM] | SMILES | IC50 [1] [nM] | IC50 [2] [nM] | IC50 [6] [nM] | IC50 [7] [nM] |
| --- | --- | --- | --- | --- | --- | --- | --- |
|  |  |  | O=c1[nH]c2ccc(OCc3cccc(I)c3)cc2c(=O)o1 | 43 | 14 |  |  |
| 933 |  |  | Cc1cc(C(=O)O)n[nH]1 |  |  |  |  |
|  | 4.3 | 52 | O=c1[nH]c2ccc(OCc3ccccc3)cc2c(=O)o1 | 132 | 73 |  |  |
|  |  |  | O=c1[nH]c2ccc(OCc3cccc(Br)c3)cc2c(=O)o1 | 59 | 11 |  |  |
|  |  |  | O=c1[nH]c2ccc(OCc3ccc4ccccc4c3)cc2c(=O)o1 | 65 | 20 | 16600 |  |
|  |  |  | O=c1[nH]c2ccc(OCc3ccc(F)cc3)cc2c(=O)o1 | 122 | 15 |  | 76200 |
| 1070 |  |  | COc1cc(/C=C/C(=O)CC(=O)/C=C/c2ccc(O)c(OC)c2)ccc1O [CURCUMIN] |  |  |  |  |
|  |  |  | CC(C)c1ccc(COc2ccc3[nH]c(=O)oc(=O)c3c2)cc1 | 10 | 76 | 21100 | 55000 |
|  |  |  | O=c1[nH]c2ccc(OCc3cccc(C(F)(F)F)c3)cc2c(=O)o1 | 83 | 4.7 |  |  |
|  |  |  | O=c1[nH]c2ccc(OCc3ccc(Br)cc3)cc2c(=O)o1 | 9.5 | 6.9 | 19800 |  |
|  |  |  | COc1cccc(COc2ccc3[nH]c(=O)oc(=O)c3c2)c1 | 94 | 18 |  |  |
|  |  |  | Cc1ccc(COc2ccc3[nH]c(=O)oc(=O)c3c2)cc1 | 61 | 6.4 | 19100 |  |
